Entries after “also recorded” stand apart in the source; their conditions may differ.
Assays:
[1] = Serum glucose before and after canagliflozin administration (Example 3); assay type: in vivo, mouse; conditions: 0.07 mg/kg IV; compared to baseline / vehicle; 5 mice/group
Description: Drugs of the gliflozin class are used in patients with diabetes mellitus to lower serum glucose. To control for the possibility that the effect of canagliflozin was mediated by a reduction in serum glucose, we measured serum glucose at various times before and after canagliflozin (0.07 mg/kg IV) administration.

C57BL6 mice, MCAo/R = experiment: MCAo/R (2/24 hours): infarct volume, hemispheric swelling, brain water, Garcia score (Example 4); assay type: in vivo, mouse
[2] = system: C57BL/6 mice, MCAo and reperfusion; experiment: 2-hour MCAo followed by 24 hours reperfusion, infarct volume and reperfusion edema (Example 2); assay type: in vivo, mouse; conditions: 0.07 mg/kg IV at reperfusion
Description: A,B: Edema, measured as percent hemispheric swelling, vs. TTC infarct volume following 2 hour MCAo and 24 hour reperfusion; data are shown for C57BL/6 mice treated upon reperfusion with vehicle (empty circles) vs. the SGLT2 inhibitor, canagliflozin (filled squares; 0.07 mg/kg IV). Note the significant downward shift in the regression line, signifying reduced coupling between reperfusion edema and infarct volume.
The known variability in the brain damage caused by ischemia in C57BL/6 mice was leveraged (Knauss, et al., Frontiers in Neuroscience 2020) to quantify the relationship between reperfusion edema and infarct volume, under both control conditions and with SGLT2 inhibition. Mice underwent 2-hour MCAo followed by 24 hours reperfusion. At 2 hours, at the time of reperfusion, mice were randomly assigned to receive either vehicle control or canagliflozin (0.07 mg/kg IV). At 24 hours, the brains were evaluated for infarct volume using 2,3,5-triphenyltetrazolium chloride (TTC) (Khan, et al., Evaluation of an optimal temperature for brain storage in delayed 2, 3,5-triphenyltetrazolium chloride staining, J. Neurosci. Methods 2000, 98:43-47), and the hemisphere volume was quantified as a measure of reperfusion edema. McBride, et al., Correcting for Brain Swelling's Effects on Infarct Volume Calculation After Middle Cerebral Artery Occlusion in Rats, Transl. Stroke Res. 2015, 6:323-338. […]

[3] = Blood glucose at reperfusion and at euthanasia by glucometer (Example 4); assay type: in vivo, mouse; conditions: non-diabetic mice; 200 μg/kg IV; 5-7 mice/group
[4] = system: astrocytes (SGLT2 activated by glucose); experiment: Astrocyte cell volume in ex vivo MCAo/R brain slices after glycemic challenge; assay type: cell-based, mouse; conditions: ipsilateral brain slices, MCAo/R 2/6 hours; step change 2 to 10 mM glucose; 5 μM
[5] = system: rat model with type 1 diabetes mellitus and bilateral ischemia; conditions: 30-minute bilateral ischemia; cited from earlier work
[6] = system: patients with or without T2DM; conditions: long-term use, regardless of T2DM; cited from earlier work
[7] = 200 μg/kg IV at reperfusion, mean ± S.E.

| Structure (SMILES) | serum glucose [1] | neurological function, Garcia score (median) (C57BL6 mice, MCAo/R; 200 μg/kg IV) | hemispheric swelling (C57BL6 mice, MCAo/R; [7]) | infarct volume (C57BL6 mice, MCAo/R; [7]) | maximum hemispheric swelling (YM) from exponential fit (C57BL6 mice, MCAo/R; 200 μg/kg IV, fit to Eq. 1) | ipsilateral brain water (C57BL6 mice, MCAo/R; 200 μg/kg IV, wet weight/dry weight method) | infarct volume (TTC) [2] | reperfusion edema (percent hemispheric swelling) relative to infarct volume ([2]; shift in Deming regression p<0.0001) | blood glucose at 24 hours [3] | blood glucose at reperfusion [3] | glucose-induced changes in astrocyte volume [4] | blood glucose [5] | infarct volume [5] | progression of kidney disease [6] | risk of death from cardiovascular disease [6] |
| --- | --- | --- | --- | --- | --- | --- | --- | --- | --- | --- | --- | --- | --- | --- | --- |
| Cc1ccc([C@@H]2O[C@H](CO)[C@@H](O)[C@H](O)[C@H]2O)cc1Cc1ccc(-c2ccc(F)cc2)s1 [canagliflozin] | remained euglycemic; also recorded: not affected | 8 | 15.7±1.0% | 87.7±6.7 mm^3 | 17.9% | 82.3±0.4 | 63.1±8.0 % of hemisphere | reduced at all infarct volumes | 146 ± 10 mg/dL | 175 ± 10 mg/dL | completely blocked |  |  |  |  |
| OC[C@H]1O[C@@H](c2ccc(Cl)c(Cc3ccc(O[C@H]4CCOC4)cc3)c2)[C@H](O)[C@@H](O)[C@@H]1O [empagliflozin] |  |  |  |  |  |  |  |  |  |  |  | reduced blood glucose | reduced blood glucose as well as infarct volume | slows the progression of kidney disease | reduces the risk of death from cardiovascular disease |
